21 compounds from patent US20030044399A1, “Method of treatment” (SmithKline Beecham Corporation, priority 1998, published 2003) can be followed below.

For one experiment, the target named is Rhodazain (Trypanosoma brucei rhodesiense, UniProt Q95PM0). In words: Cysteine protease inhibition, progress curve method, rhodazain. It counts as biochemical, Trypanosoma brucei rhodesiensi. Particulars: 10 uM Cbz-Leu-Arg-AMC, 100 mM Na acetate pH 5.5, 5 mM cysteine.
For another experiment, the target named is Cruzain (Trypanosoma cruzi, UniProt P25779). In words: Cysteine protease inhibition, progress curve method, cruzain. The experiment is classed as biochemical. Particulars: 4 uM Ac-Lys-Glu-Lys-Leu-Arg-AMC, 100 mM Na acetate pH 5.5, 5 mM cysteine; read-out: Cruzain Ki. In short, it runs like this:
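Buffer was 100 mM sodium acetate pH 5.5 with 5 mM cysteine and 2% DMSO, at ambient temperature; reactions started with enzyme, and AMC formation was followed for 20–30 min. Substrates: Leishmania and Schistosoma, 10 uM Cbz-Phe-Arg-AMC; falcipain, 10 uM Cbz-Leu-Arg-AMC; cruzain, 4 uM Ac-Lys-Glu-Lys-Leu-Arg-AMC. Linear curves gave Ki,app; curved ones gave kobs/[I].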

Like-named read-outs stand apart in the source and are kept apart here.

Rhodazain, sequence (Q95PM0 entry or part of it): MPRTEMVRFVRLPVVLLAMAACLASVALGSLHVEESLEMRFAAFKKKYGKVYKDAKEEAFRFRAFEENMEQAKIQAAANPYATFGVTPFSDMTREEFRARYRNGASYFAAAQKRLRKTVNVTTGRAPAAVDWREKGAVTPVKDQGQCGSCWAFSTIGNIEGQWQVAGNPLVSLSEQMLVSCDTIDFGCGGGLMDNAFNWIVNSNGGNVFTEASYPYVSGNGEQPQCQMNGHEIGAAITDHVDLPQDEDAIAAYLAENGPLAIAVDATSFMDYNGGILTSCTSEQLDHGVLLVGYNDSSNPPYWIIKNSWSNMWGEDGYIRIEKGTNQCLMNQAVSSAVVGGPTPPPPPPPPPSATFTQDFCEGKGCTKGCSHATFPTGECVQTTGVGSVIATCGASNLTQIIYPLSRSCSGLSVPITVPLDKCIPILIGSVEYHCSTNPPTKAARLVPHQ
Cruzain, sequence (P25779 123-337): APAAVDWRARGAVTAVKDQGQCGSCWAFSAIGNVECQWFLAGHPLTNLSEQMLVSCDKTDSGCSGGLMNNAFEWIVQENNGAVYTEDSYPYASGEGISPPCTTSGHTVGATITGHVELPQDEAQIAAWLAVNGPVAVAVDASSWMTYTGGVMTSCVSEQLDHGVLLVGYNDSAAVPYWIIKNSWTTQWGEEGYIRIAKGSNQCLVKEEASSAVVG

On to `CC(C)C[C@H](NC(=O)c1ccc2ccccc2n1)C(=O)N[C@H]1CCCN(C(=O)Nc2ccccc2F)CC1=O` [Example 219, Quinoline-2-carboxylic acid {(S)-1-[1-(2-fluoro-phenylcarbamoyl)-3-oxo-azepan-4-ylcarbamoyl]-3-methyl-butyl}-amide], for which the Ki at Rhodazain (Rhodazain Ki (nM)) was found to be 5.5 nM; on Cruzain it was 8.4 nM.
On to `COc1ccc2c(C)c(C(=O)NC(CC(C)C)C(=O)N[C@H]3CCN(S(=O)(=O)c4cccc[n+]4[O-])CCC3=O)oc2c1` (single isomer, unassigned) [Example 211], for which the Ki worked out at 2.8 nM at Rhodazain (Rhodazain Ki (nM)) and 10 nM at Cruzain.
For `CC(C)C[C@@H](NC(=O)c1cnc2ccccc2n1)C(=O)N[C@@H]1CCCN(S(=O)(=O)c2ccccn2)CC1=O` (stereo in doubt) [Example 30, Quinoxaline-2-carboxylic acid {(S)-3-methyl-1-[3-oxo-1-(pyridine-2-sulfonyl)-azepan-4-ylcarbamoyl]-butyl}amide], the Ki was 10 nM on Rhodazain (Rhodazain Ki (nM)) and 17 nM at Cruzain.
Regarding `CC(C)C[C@@H](NC(=O)c1ccc(Br)o1)C(=O)N[C@@H]1CCCN(S(=O)(=O)c2cccc[n+]2[O-])CC1=O` [Example 47], the values for the Ki at Rhodazain (Rhodazain Ki (nM)) and at Cruzain were 2.7 nM and 13 nM, respectively.
Taken in the same sequence, the figures for `CC(C)C[C@@H](NC(=O)c1ccc(Br)o1)C(=O)N[C@@H]1CCCN(S(=O)(=O)c2ccccn2)CC1=O` (stereo in doubt) [Example 34, 5-Bromo-furan-2-carboxylic acid {(S)-3-methyl-1-[3-oxo-1-(pyridine-2-sulfonyl)-azepan-4-ylcarbamoyl]-butyl}amide] were 2.6 nM and 12 nM.
With `CC(C)C[C@@H](NC(=O)c1cc2ccccc2o1)C(=O)N[C@@H]1CCCN(S(=O)(=O)c2ccccn2)CC1=O` [Example 16], the figures for the Ki on Rhodazain (Rhodazain Ki (nM)) and at Cruzain were 5.5 nM and 6.1 nM, respectively.
In the same order, the values of `CC(C)C[C@H](NC(=O)c1cc2ccccc2o1)C(=O)NC1CCCN(S(=O)(=O)c2cccc(F)c2)CC1=O` (stereo partly drawn) [Example 183, Benzofuran-2-carboxylic acid {(S)-1-[-(3-fluoro-benzensulfonyl)-3-oxo-azepan-4-ylcarbamoyl]-3-methyl-1-butyl}-amide] are 6.5 nM and 7.1 nM.
For the compound `Cc1c(C(=O)N[C@@H](CC(C)C)C(=O)N[C@@H]2CCCN(S(=O)(=O)c3cccs3)CC2=O)oc2ccccc12` [Example 145, 3-Methyl-benzofuran-2-carboxylic acid-{(S)-3-methyl-1-[3-oxo-1-(thiophene-2-sulfonyl)-azepan-4-ylcarbamoyl]-butyl}-amide], the values for the Ki at Rhodazain (Rhodazain Ki (nM)) and on Cruzain were 9.4 nM and 6.2 nM, respectively.
Consider `CC(C)C[C@@H](NC(=O)c1cc2cc(F)c(F)cc2o1)C(=O)N[C@@H]1CCCN(S(=O)(=O)c2ccccn2)CC1=O` (stereo in doubt) [Example 149, 5,6-Difluoro-benzofuran-2-carboxylic acid {(S)-3-methyl-1-[1-(pyridine-2-sulfonyl)-3-oxo-azepan-4-ylcarbamoyl]-butyl}amide], for which the Ki at Rhodazain (Rhodazain Ki (nM)) was 6.3 nM; on Cruzain, 9.1 nM.
Take “5-(2-Morpholin-4-yl-ethoxy)-benzofuran-2-carboxylic acid {(S)-3-methyl-1-[3-oxo-(1-oxy-pyridine2-sulfonyl)-azepan-4-ylcarbamoyl]-buty}-amide [Example 116]”: the Ki is 3.2 nM on Rhodazain (read-out: Rhodazain Ki) and 4.4 nM on Cruzain.
In the case of `CC(C)C[C@@H](NC(=O)c1cc2cc(F)ccc2o1)C(=O)N[C@H]1CCCN(S(=O)(=O)c2cccc[n+]2[O-])CC1=O` (single isomer, unassigned) [Example 194], the Ki at Rhodazain (Rhodazain Ki (nM)) turned out to be 6.7 nM; on Cruzain, 8.7 nM.
Taken in the same sequence, the figures for `CC(C)C[C@@H](NC(=O)c1nccc2ccccc12)C(=O)N[C@@H]1CCCN(S(=O)(=O)c2ccccn2)CC1=O` (single isomer, unassigned) [Example 154] were 4.4 nM and 4.4 nM.
In the same order, the values of `Cc1c(C(=O)N[C@@H](CC(C)C)C(=O)N[C@H]2CCCN(S(=O)(=O)c3nccs3)CC2=O)oc2ccccc12` [Example 126, 3-Methylbenzofuran-2-carboxylic acid {(S)-3-methyl-1-[3-oxo-1-(thiazole-2-sulfonyl)-azepan-4-ylcarbamoyl]-butyl}amide] are 3.8 nM and 4.3 nM.
In the same order, the values of `COc1cc2cc(C(=O)N[C@H](CC(C)C)C(=O)N[C@@H]3CCCN(S(=O)(=O)c4cccc[n+]4[O-])CC3=O)oc2cc1OC` [Example 52, 5,6-Dimethoxy-benzofuran-2-carboxylic acid {(S)-3-methyl-1-[3-oxo-1-(1-oxy-pyridine-2-sulfonyl)-azepan-4-ylcarbamoyl]-butyl}amide] are 3.3 nM and 48 nM.
Regarding `CC(C)C[C@H](NC(=O)c1cc2ccccc2o1)C(=O)N[C@H]1CCCN(S(=O)(=O)c2cccs2)CC1=O` [Example 142, Benzofuran-2-carboxylic acid-{(S)-3-methyl-1-[3-oxo-1-(thiophene-2-sulfonyl)-azepan-4-ylcarbamoyl]-butyl}-amide], the Ki at Rhodazain (Rhodazain Ki (nM)) was determined as 5.2 nM; at Cruzain, 2.4 nM.
Turning to `COc1cccc2oc(C(=O)N[C@@H](CC(C)C)C(=O)NC3CCCN(S(=O)(=O)c4cccc[n+]4[O-])CC3=O)c(C)c12` (stereo partly drawn) [Example 208, 4-Methoxy-3-methyl-benzofuran-2-carboxylic acid {(S)-3-methyl-1-[3-oxo-1-(1-oxy-pyridine-2-sulfonyl)-azepan-4-ylcarbamoyl]-butyl}-amide], the Ki turned out to be 4.2 nM on Rhodazain (read-out: Rhodazain Ki) and 10 nM at Cruzain.
Take `CC(C)C[C@H](NC(=O)c1cc2ccccc2o1)C(=O)N[C@H]1C[C@H](C)CN(S(=O)(=O)c2ccccn2)CC1=O` (single isomer, unassigned) [Example 167]: the figures for the Ki at Rhodazain (Rhodazain Ki (nM)) and at Cruzain were 4 nM and 3.5 nM, respectively.
In the same order, the values of `CC(C)C[C@H](NC(=O)c1cc2ccccc2o1)C(=O)N[C@H]1C[C@H](C)CN(S(=O)(=O)c2ccccn2)CC1=O` (single isomer, unassigned) [Example 173] are 2.2 nM and 2 nM.
As to `CC(C)C[C@H](NC(=O)c1cc2ccccc2s1)C(=O)N[C@H]1CCCN(C(=O)Nc2ccccc2F)CC1=O` (stereo in doubt) [Example 215, Benzo[b]thiophene-2-carboxylic acid {(S)-1-[1-(2-fluoro-phenylcarbamoyl)-3-oxo-azepan-4-ylcarbamoyl]-3-methyl-butyl}-amide], the Ki at Rhodazain (Rhodazain Ki (nM)) came out at 3.6 nM; at Cruzain, 6.4 nM.
Taken in the same sequence, the figures for `Cc1cccnc1S(=O)(=O)N1CCC[C@@H](NC(=O)[C@@H](CC(C)C)NC(=O)c2cc3sccc3s2)C(=O)C1` [Example 160, Thieno [3.2-b]thiophene-2-carboxylic acid {(S)-3-methyl-1-[1-(3-methyl-pyridine-2-sulfonyl)-3-oxo-azepan-4-ylcarbamoyl]-butyl}amide] were 6.7 nM and 7.4 nM.
In the case of `COc1cccc2oc(C(=O)N[C@@H](CC(C)C)C(=O)NC3CCCN(S(=O)(=O)c4cccc[n+]4[O-])CC3=O)c(C)c12` (stereo partly drawn) [Example 209, 4-Methoxy-3-methyl-benzofuran-2-carboxylic acid {(S)-3-methyl-1-[3-oxo-1-(1-oxy-pyridine-2-sulfonyl)-azepan-4-ylcarbamoyl]-butyl}-amide], the Ki on Rhodazain (read-out: Rhodazain Ki) is 4.1 nM; on Cruzain, 8.9 nM.
